Laboratory results taken from ChEMBL document CHEMBL1201862, “PubChem BioAssay data set” (2004).
Active and inactive are the calls of the source.

Experiments:
[1] = HEp-2 cell cytotoxicity, dose response, cytotoxicity control for RSV inhibitor project, HTS (AID 2410); type: functional; settings: human respiratory syncytial virus
cells [2] = type: functional, cell-based
cells [3] = type: functional, cell-based; remark: listed apart in the source
[4] = target: FAD-linked sulfhydryl oxidase ALR (Homo sapiens, UniProt P55789); assay: inhibitors of human ALR sulfhydryl oxidase, dose response, biochemical, H2O2 detection, luminescence, cherry-pick (AID 493248)
[5] = Luminescence Cell-Based Dose Confirmation HTS to Identify Activators of 5'UTR Stem-Loop Driven Alpha-Synuclein mRNA Translation in H4 Neuroglioblastoma Cells. [Related pubchem assays: 1829 (Project Summary), 1814 (Primary HTS)]; type: functional
Protein skinhead-1 = target: T1, Protein skinhead-1 (Caenorhabditis elegans, UniProt P34707); type: functional
T1 sequence (P34707 whole entry): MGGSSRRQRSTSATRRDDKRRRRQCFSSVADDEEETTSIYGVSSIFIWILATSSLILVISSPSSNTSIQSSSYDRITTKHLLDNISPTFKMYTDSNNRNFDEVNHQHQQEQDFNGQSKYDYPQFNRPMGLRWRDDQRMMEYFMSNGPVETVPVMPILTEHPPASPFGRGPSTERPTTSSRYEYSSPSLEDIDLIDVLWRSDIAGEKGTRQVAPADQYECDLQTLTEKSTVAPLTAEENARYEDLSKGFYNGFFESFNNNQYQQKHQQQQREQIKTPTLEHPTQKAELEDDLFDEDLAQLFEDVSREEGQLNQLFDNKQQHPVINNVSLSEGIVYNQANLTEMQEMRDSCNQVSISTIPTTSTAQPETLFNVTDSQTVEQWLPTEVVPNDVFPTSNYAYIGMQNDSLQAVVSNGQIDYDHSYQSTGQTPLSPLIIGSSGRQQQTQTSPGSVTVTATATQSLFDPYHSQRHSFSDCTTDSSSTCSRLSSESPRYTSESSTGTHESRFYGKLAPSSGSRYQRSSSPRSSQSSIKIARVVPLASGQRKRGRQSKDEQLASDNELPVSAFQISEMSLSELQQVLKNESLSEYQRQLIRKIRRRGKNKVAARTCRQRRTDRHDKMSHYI

[6] = growth suppression of PTEN-null colon cells, dose response, cell-based, HCT116 PTEN knockout (AID 1047); type: functional;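 further: HCT116 colon tumor cells with PTEN knocked out; cells exposed to compound for 60 hours before readout; potency for loss of cell viability measured by luminescence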
[7] = growth suppression of beta-catenin-knockout colon cells, dose response, cell-based, HCT116, human colon tumor (AID 1045); type: functional;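 further: HCT116 colon tumor cells with beta catenin knocked out; cells exposed to compound for 60 hours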
Nonstructural protein 1 = Nonstructural protein 1 (Influenza A virus, UniProt Q194T2); type: functional, Influenza A virus (A/California/07/2009(H1N1))
[8] = Shn3 3'UTR reporter inhibitors, dose response, cell-based, Clone20 osteoblasts, firefly luciferase, cherry-picked (AID 624132); type: functional;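 further: firefly luciferase luminescence from reporter carrying the Shn3 3'UTR in osteoblasts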
[9] = HepG2 cell cytotoxicity, dose response, cytotoxicity control for Shn3 inhibitor project, CellTiter-Glo, cherry-picked (AID 624134); type: functional, cell-based
[10] = control 3'UTR Renilla luciferase suppression, dose response, counter-screen for Shn3 inhibitor project, cell-based, Clone20-Shn3RL, cherry-picked (AID 624133); type: functional
[11] = target: Peroxisome proliferator-activated receptor gamma/Nuclear receptor coactivator 1 (Homo sapiens, UniProt P37231); assay: (§1) TR-FRET dose response biochemical High Throughput Screening assay for agonists of the steroid receptor coactivator 1 (SRC-1) recruitment by the peroxisome proliferator-activated receptor gamma (PPAR gamma): non-selective agonists. [Related pubchem assays (depositor defined):AID1300, AID1808, AID504735, AID631]; type: protein assay
[12] = target: Peroxisome proliferator-activated receptor gamma/Nuclear receptor coactivator 3 (Homo sapiens, UniProt P37231); assay: as §1, with “3 (SRC-3)” for “1 (SRC-1)”, “assays: 1301 (Confirmation screen.), 1048 (Primary screen.)]” for “assays (depositor defined):AID1300, AID1808, AID504735, AID631]”; type: functional
[13] = target: Peroxisome proliferator-activated receptor gamma/Nuclear receptor coactivator 2 (Homo sapiens, UniProt P37231); assay: TR-FRET dose response biochemical High Throughput Screening assay for agonists of the steroid receptor coactivator 2 (SRC-2) recruitment by the peroxisome proliferator-activated receptor gamma (PPAR gamma): non-selective agonists. [Related pubchem assays: 1297, 1032 ]; type: functional
[14] = inhibitors of intracellular T. cruzi replication, confirmation, NIH3T3 host cells, beta-gal luminescence (AID 2044); type: functional, cell-based;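 further: intracellular parasites grown in NIH/3T3 mouse fibroblasts as host cells; luminescent beta-galactosidase reporter signal from transgenic T. cruzi replicating inside host cells; inhibitors lower the luminescence signal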
[15] = cytotoxicity toward NIH3T3 fibroblasts, dose response, counter-screen, cell-based, ATP luminescence, mouse fibroblasts (AID 2010); type: functional;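 further: cells exposed to compound for about 90 hours before reading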
INS1 = assay: beta cell apoptosis inhibitors, cytokine rescue, dose response, luminescence, retest (AID 449756); type: functional, cell-based; settings: Rattus norvegicus;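 further: cell death triggered by IL-1 beta plus TNF-alpha plus IFN-gamma mixture; protective hits raise ATP signal compared with cytokine alone wells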
[16] = Luminescence Cell-Based Dose Response HTS to Identify Activators of Luciferase Translation or Activity in H4 […] Cells. [Related pubchem assays: 1829 (Project Summary), 1814 (Primary HTS)]; type: functional
H4 = assay: Luminescence Cell-Based Dose Response HTS to Identify Activators of 5'UTR Stem-Loop Driven Prion Protein mRNA Translation in H4 Neuroglioblastoma Cells. [Related pubchem assays: 1829 (Project Summary), 1814 (Primary HTS)]; type: functional; settings: Homo sapiens
[17] = system: Streptococcus sp. 'group A'; assay: growth inhibition of control SK(-) GAS strain, dose response, counter-screen for streptokinase expression inhibitor project, luminescence, kanamycin, BacTiterGlo, confirmation (AID 1900); type: functional, organism-based
Streptokinase A = target: T2, Streptokinase A (Streptococcus pyogenes serotype M1, UniProt P10520); assay: S. pyogenes streptokinase expression inhibitors, potency, dose response, plasminogen activation absorbance, OD405 (AID 1914); type: functional, Streptococcus pyogenes M1 GAS;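 further: secreted streptokinase activity via plasminogen activation per viability signal from cell pellet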
T2 sequence (P10520 whole entry): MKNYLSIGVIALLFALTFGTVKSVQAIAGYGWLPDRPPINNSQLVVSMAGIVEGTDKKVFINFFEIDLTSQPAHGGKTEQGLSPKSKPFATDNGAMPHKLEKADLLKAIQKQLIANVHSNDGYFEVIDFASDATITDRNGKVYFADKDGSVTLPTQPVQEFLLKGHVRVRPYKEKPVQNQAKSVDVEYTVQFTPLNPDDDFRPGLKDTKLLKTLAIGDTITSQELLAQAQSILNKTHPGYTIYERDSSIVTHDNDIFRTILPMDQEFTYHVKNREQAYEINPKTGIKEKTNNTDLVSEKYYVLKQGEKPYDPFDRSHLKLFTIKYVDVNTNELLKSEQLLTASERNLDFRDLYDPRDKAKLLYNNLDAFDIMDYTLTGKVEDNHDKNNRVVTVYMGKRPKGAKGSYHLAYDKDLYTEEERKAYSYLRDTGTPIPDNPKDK

Streptococcus = assay: Group A Streptococcus viability loss, dose response, counter-screen for streptokinase expression inhibitor project, luminescence, BacTiterGlo (AID 1915); type: functional, organism-based;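 further: potency for reduction of bacterial viability or growth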

OCCCn1c(C2CCCN2c2nc(-c3ccc(F)cc3)cs2)nc2cc(C(F)(F)F)ccc21 (configuration not stated)
CC50 [1]: 16.8 µM (active)

Cc1ccc(C)c(CNS(=O)(=O)c2ccc3c(c2)C(C)(C)C(=O)N3C)c1
EC50 (cells [2]): > 350 µM (not active) | EC50 (cells [3]): > 350 µM (not active)

Cc1cc(C)c2c(-n3cccc3)c(C(=O)NNS(=O)(=O)c3ccc(Br)cc3)sc2n1
CC50 [1]: 19 µM (active) | AC50 [4]: 74.4 µM (active)

FC(F)Oc1ccc(C2NC(c3ccccc3)=NO2)cc1 (configuration not stated)
EC50 [5]: 0.115 µM (active) | IC50 (Protein skinhead-1): 80.6 µM (inactive)

CC(OC(=O)c1ncc(Cl)c(Cl)c1Cl)C(=O)NC1(C#N)CCCCC1 (configuration not stated)
EC50 (cells [2]): > 350 µM (not active) | EC50 (cells [3]): > 350 µM (not active)

COc1ccccc1N1CCN(c2cc(=O)n(Cc3ccc(F)cc3)c(=O)[nH]2)CC1
EC50 [6]: 10.5 µM (active) | EC50 [7]: 10.1 µM (active)

COc1ccccc1C(=O)Nc1ccc(S(=O)(=O)N2CCc3ccccc32)cc1
CC50 [1]: 48.7 µM (active)

CSc1sc(C(=O)N2CCCCC2)c(-c2cccs2)c1C#N
EC50 (cells [2]): > 350 µM (not active) | EC50 (cells [3]): > 350 µM (not active)

CC(C(=O)Nc1ccccc1-c1ccccc1)N(C)Cc1nc(O)c2ccccc2n1 (configuration not stated)
EC50 (cells [2]): > 350 µM (not active) | EC50 (cells [3]): > 350 µM (not active)

O=S(=O)(c1ccccc1)N1CCC(c2nc(O)c3nnn(Cc4cccc(Cl)c4)c3n2)CC1
CC50 [1]: 22.3 µM (active)

Oc1cc(Nc2cccnc2)cc2cccnc12
IC50 (Nonstructural protein 1): 8.89 µM (active) | AC50 [8]: 2.12 µM (active) | AC50 [9]: 38.8 µM (active) | AC50 [10]: 4.72 µM (active)

CCn1c(=O)cc(SCC(=O)N(C)Cc2ccccc2)c2ccccc21
EC50 [11]: > 79.4 µM (inactive) | EC50 [12]: > 79.4 µM (not active) | EC50 [13]: > 79.4 µM (not active)

CC(=O)c1cccc(NS(=O)(=O)c2ccc(-c3cc(C)no3)s2)c1
EC50 (cells [2]): > 350 µM (not active) | EC50 (cells [3]): > 350 µM (not active)

Clc1ccc(CSc2ccc(-c3ccccn3)nn2)cc1
EC50 (cells [2]): 12.5 µM (active) | EC50 [14]: 1.84 µM (active) | EC50 (cells [3]): 43.7 µM (active) | EC50 [15]: > 30 µM (not active) | AC50 (INS1): 5.06 µM (active)

CCS(=O)(=O)c1ccc(-c2cccc(NC(=O)COc3ccccc3)c2)nn1
EC50 (cells [2]): > 350 µM (not active) | EC50 (cells [3]): > 350 µM (not active)

CSc1nc(Sc2ccccc2Cl)c2ccccc2n1
EC50 [11]: > 79.4 µM (inactive) | EC50 [12]: > 79.4 µM (not active) | EC50 [13]: > 79.4 µM (not active)

CCOCCn1c(COc2ccccc2)nc2ccccc21
IC50 (Protein skinhead-1): > 100 µM (inactive)

COCCn1c(C)cc(C(=O)CN2C(=O)NC3(CCCCCCC3)C2=O)c1C
EC50 [5]: 0.94 µM (active) | EC50 [16]: 0.283 µM (active) | EC50 (H4): 8.28 µM (active)

CCc1ccc(Nc2c([N+](=O)[O-])nn(-c3ccccc3)[n+]2[O-])cc1
EC50 [14]: 0.461 µM (active) | EC50 [15]: > 60 µM (not active) | IC50 (Nonstructural protein 1): 81.8 µM (active)

Cc1ccc2sc(NC(=O)c3cccc(N4C(=O)CCC4=O)c3)nc2c1C
IC50 (Protein skinhead-1): > 100 µM (inactive)

Cc1cccc(/C=C/C(=O)c2ccc(NC3=NCCCS3)cc2)c1
EC50 [5]: 23.3 µM (active) | EC50 [16]: 9.88 µM (active) | EC50 (H4): > 120 µM (not active) | EC50 [14]: 2.23 µM (active) | EC50 [15]: > 60 µM (not active) | IC50 (Protein skinhead-1): 19.9 µM (active)

COc1ccc(N=Nc2cnc(C)nc2-c2ccccc2)cc1
IC50 (Nonstructural protein 1): 43.8 µM (active)

COc1ccc(OC)c(-c2csc(NC(=O)Cc3ccccc3OC)n2)c1
CC50 [1]: 25.3 µM (active)

Cc1ccc(CNC(=O)CSc2c3c(nc4cc(Cl)ccc24)CCCC3)o1
EC50 [11]: > 79.4 µM (inactive) | EC50 [12]: > 79.4 µM (not active) | EC50 [13]: > 79.4 µM (not active)

COc1cccc2[nH]c3c(N4CCc5ccccc5C4)ncnc3c12
CC50 [1]: > 50 µM (active)

CC(C)c1ccc(NC(=O)[C@@H]2CCC(=O)N2C2OC(=O)c3ccccc32)cc1 (some centres not stated)
EC50 [5]: 0.143 µM (active) | EC50 [16]: 24.5 µM (active) | EC50 (H4): 38.2 µM (active)

CCOC(=O)c1sc(-c2ccc(OC)cc2)cc1NC(C)=O
EC50 [11]: > 79.4 µM (inactive) | EC50 [12]: > 79.4 µM (not active) | EC50 [13]: 22 µM (not active)

Cc1ccc2[nH]c(SCC(=O)c3ccc(O)cc3O)nc2c1
EC50 [5]: 9.48 µM (active) | EC50 [16]: 16.5 µM (active) | EC50 (H4): 52.9 µM (active)

O=C(Nc1ccc2c(c1)nc1n2CCN(Cc2ccccc2)C1)c1cccs1
EC50 [5]: 17.2 µM (active) | EC50 [16]: 13.6 µM (active) | EC50 (H4): > 120 µM (not active)

COc1ccccc1C(=O)Nc1nnc(CCc2ccccc2)s1
EC50 [5]: > 120 µM (not active) | EC50 [16]: 8.71 µM (active) | EC50 (H4): > 120 µM (not active)

CN1CCN(C(=O)CSc2cc(=O)n(C)c3ccccc23)CC1
EC50 [11]: > 79.4 µM (inactive) | EC50 [12]: > 79.4 µM (not active) | EC50 [13]: > 79.4 µM (not active)

COc1ccc(-c2csc(NCCc3nc4cc(Cl)c(Cl)cc4n3CCCO)n2)cc1
CC50 [1]: 19.6 µM (active)

C#Cc1ccc2c(c1)COc1c3ccccc3nn1-2
IC50 (Protein skinhead-1): > 100 µM (inactive)

CCOC(=O)c1sc(NC(=O)CN2CC(C)OC(C)C2)nc1C (configuration not stated)
IC50 (Protein skinhead-1): > 100 µM (inactive)

CN(C)c1cccc(O)c1
IC50 (Protein skinhead-1): > 100 µM (inactive)

CCCOc1ccc(/C=N/Nc2ccccc2[N+](=O)[O-])c(OCCC)c1
IC50 (Nonstructural protein 1): 7.73 µM (active)

Cc1ccc(-c2nn(-c3ccccc3)cc2/C=N/NC(=O)CSc2nnc(C)n2-c2ccccc2)cc1
EC50 [5]: 13.4 µM (active) | EC50 [16]: 63.4 µM (active) | EC50 [17]: 7.47 µM (active) | EC50 (H4): 16.6 µM (active) | EC50 (Streptokinase A): 65.8 µM (active) | EC50 (Streptococcus): 33.5 µM (active)

C/C(=N\OC(=O)c1ccc(F)cc1)c1sc(-c2ccccc2)nc1C
CC50 [1]: > 50 µM (active)

O=C(O)CN(CC(=O)O)CC(=O)O [NITRILOTRIACETIC ACID]
IC50 (Nonstructural protein 1): 17.7 µM (active)
